Source: US20100056519A1, “COMPOSITION AND METHOD FOR REDUCING PLATELET ACTIVATION AND FOR THE TREATMENT OF THROMBOTIC EVENTS” (priority 2008, published 2010)
Marks after values point to notes of the source that are not given here.

Legend:
[1] = tested on: platelets; experiment: Platelet Function Analyzer PFA-100, ADP/Collagen cartridge; format: cell-based, human; settings: for Closure time (s): recording limit 300 s
Procedure: (§1) The methodology employed was conventional aggregation induced by 5 μM ADP, 1 μg/ml collagen, 10 μM TRAP, whole blood aggregation with 1 μg/ml collagen, Ultegra, and PFA-100 Analyzers, expression of 14 intact, and TRAP-stimulated major receptors by whole blood flow cytometry were utilized to assess platelet activity after preincubation with escalating concentrations of E5555 (20 ng/ml, 50 ng/ml, and 100 ng/ml). The experiments were performed in healthy volunteers, CAD patients treated with ASA, and CAD patients treated with ASA and clopidogrel combination (n=10, for each group).
(§2) An Informed Consent was obtained from all volunteers. Drug users were excluded from data analysis. The study was approved by Quorum Institutional Review Board. All subjects underwent blood sampling after at least 30 minutes of rest and two or more hours of fasting. Blood (28 ml) was drawn between 8 and 10 a.m. in order to avoid any diurnal influence and sampled from an antecubital vein using a 21-gauge butterfly needle containing 3.2% sodium citrate (1:9 volume) after having discarded the first 1.5 ml of free running blood. Four Vacutainer tubes (7.0 ml) were collected for a total of 28 ml of whole blood-citrate mixture from each study participant. Chronologically, blood samples were delivered to the core laboratory facility within 45 minutes after drawing. Then all tubes of blood-citrate mixture were pooled. One portion of pooled blood (5 ml) was kept as an internal control and pretreated with the vehicle. The remaining blood (23 ml) was used for the in vitro exposure to E5555 at concentrations of 20 ng/ml, 50 ng/ml, and 100 ng/ml. […] The platelet aggregation studies, Rapid Analyzers measures, and flow cytometry preparations were initiated within no more than 110 minutes following the blood draw, incubation with the drug, and preparation of the samples.
Whole blood aggregation was determined using a Chronolog device 592A. The whole blood-citrate mixture was diluted 1:1 with 0.5 ml phosphate buffered saline and gently swirled. The sample then was allowed to warm to 37° C. for 5 minutes then transferred to the assay well. The electrode was then placed in the cuvette and the sample was stimulated with 1 μg/ml collagen. The change in electrical impedance was digitally recorded. Each whole blood sample was analyzed utilizing 2 different clinical devices: • (1) a Rapid Platelet-Function Assay (Ultegra®) (Accumetrics, Inc., San Diego, Calif.), which is a rapid platelet-function assay aspirin cartridge test with TRAP used as agonist. Polystyrene beads coated with fibrinogen are placed in a cartridge along with the peptide that activates thrombin receptor. Anticoagulated whole blood was added to the cartridge, and agglutination between platelets and coated beads was recorded. The data mirrors turbidimetric platelet aggregation and presumably reflects platelet glycoprotein IIb/IIIa blockade. Ultegra RPFA-TRAP Assay results were reported as Platelet Activation Units (PAU); and • (2) Platelet-Function Analyzer PFA-100 ™ (Dade Behring, Deerfield Ill.), which is a high shear-inducing analyzer that simulates primary hemostasis after injury to a small vessel under flow conditions. The device provides a constant negative pressure that aspirates whole blood, which comes into contact with the collagen, coated membrane and then passes through the aperture. The time required to obtain occlusion of the aperture is digitally recorded. The time to aperture occlusion (the closure time) is recorded in seconds and is inversely related to the degree of shear-induced platelet activation. We used ADP/Collagen cartridges in the index study. Both PFA-100 and Ultegra assays were performed in duplicate. An electronic quality control test was performed on each instrument daily prior to performing any patient samples.

[2] = tested on: LAMP-3 (CD63); experiment: Unstimulated whole blood flow cytometry, LAMP-3; format: cell-based, human; settings: for LAMP-3 (CD63), Mean Fluorescence Intensity: unstimulated, Mean ± SD
Procedure: as §1, §2
Formation of platelet-leukocyte aggregates was assessed by dual labeling with pan-platelet marker (CD151), and then with CD14, the macrophage receptor for endotoxin lipopolysaccharides (PharMingen, and Coulter, San Diego, Calif., USA). The tubes were then covered with aluminum foil and incubated at 37° C. for 40 minutes with gentle rotation. After incubation, samples were immediately analyzed on a Becton Dickinson FACScan flow cytometer. The instrument was set up to measure forward light scatter, and FITC fluorescence. All parameters were collected using four-decade logarithmic amplification. The data was retrieved in list mode files and then analyzed. P selectin was expressed as percent positive cells. Other antigens were expressed as log mean fluorescence intensity.

[3] = E5555 20 ng/ml, Patients (ASA + C)
[4] = E5555 50 ng/ml, Patients (ASA + C)
[5] = E5555 100 ng/ml, Patients (ASA + C)
[6] = E5555 100 ng/ml, Patients (ASA)

`Br.CCOc1cc2c(c(F)c1OCC)C(=N)N(CC(=O)c1cc(N3CCOCC3)c(OC)c(C(C)(C)C)c1)C2` [E5555, 1-(3-tert-butyl-4-methoxy-5-morpholinophenyl)-2-(5,6-diethoxy-7-fluoro-1-imino-1,3-dihydro-2H-isoindol-2-yl)ethanone hydrobromide] was tested, and the “Closure time (s)” value [1, 3] was >300*† s, the “Closure time (s)” value ([1]; E5555 20 ng/ml, Patients (ASA)) was >300*† s and the “Closure time (s)” value ([1]; E5555 20 ng/ml, Volunteers) was >300*† s. For the same compound, the “Closure time (s)” value [1, 4] was >300*† s, the “Closure time (s)” value ([1]; E5555 50 ng/ml, Patients (ASA)) was >300*† s and the “Closure time (s)” value ([1]; E5555 50 ng/ml, Volunteers) was >300*† s. The “Closure time (s)” value [1, 5] was >300*† s, the “Closure time (s)” value [1, 6] was >300*† s and the “Closure time (s)” value ([1]; E5555 100 ng/ml, Volunteers) was >300*† s. The “Platelet Analyzer readings, shear-induced activation, effect in words” value ([1]; overall summary) was “reduced shear-induced activation”, the “LAMP, effect in words” value ([2]; overall summary, stimulation not stated) was “not affected” and the “LAMP-3 (CD63), Mean Fluorescence Intensity” value (“LAMP-3 (CD63)” below) [2, 3] was 7.2 ± 1.3 MFI. For the same compound, the “LAMP-3 (CD63)” value ([2]; E5555 20 ng/ml, Patients (ASA)) was 7.0 ± 1.6 MFI, the “LAMP-3 (CD63)” value ([2]; E5555 20 ng/ml, Volunteers) was 8.1 ± 2.0 MFI and the “LAMP-3 (CD63)” value [2, 4] was 7.0 ± 1.7 MFI. For the same compound, the “LAMP-3 (CD63)” value ([2]; E5555 50 ng/ml, Patients (ASA)) was 7.2 ± 1.5 MFI, the “LAMP-3 (CD63)” value ([2]; E5555 50 ng/ml, Volunteers) was 8.0 ± 1.7 MFI and the “LAMP-3 (CD63)” value [2, 5] was 6.9 ± 1.8 MFI. The “LAMP-3 (CD63)” value [2, 6] was 6.5 ± 1.9 MFI and the “LAMP-3 (CD63)” value ([2]; E5555 100 ng/ml, Volunteers) was 7.7 ± 2.1 MFI.
